Legend:
Hepatocyte stability = type: in vitro ADME, rat (Sprague Dawley); conditions: Rat, 1 μmol/L
Description: (§1) Metabolic stability: liver microsomes and hepatocytes from human, mouse (CD1), rat (Sprague Dawley) and dog (Beagle) were obtained from Invitrogen. RXC004 (1 μmol/L) was incubated at 37°C with microsomes (0.5 mg · mL^−1) or hepatocytes (0.5 × 10^6 cells · mL^−1). Aliquots were removed at 0–45 minutes and RXC004 concentrations determined by LC/MS-MS analysis. Half-life (T1/2) and intrinsic clearance (CLint) were calculated as described in ref. [18].

In vivo pharmacokinetics = test: In vivo pharmacokinetics; parameters: species or system rat (male Sprague Dawley); conditions: rat
Description: In vivo pharmacokinetics: RXC004 was dosed to male Sprague Dawley rats, male CD1 mice or dog (beagle) by intravenous and oral routes. Bioanalysis of blood and plasma samples was performed by LC/MS-MS using a Waters TQS or TQMS mass spectrometer. Pharmacokinetic information was derived using WinNonlin software (Certara).

[1] = system: functional Wnt production from mouse L-Wnt3a cells; test: Wnt reporter assay (L-Wnt3a conditioned media on LEADING LIGHT Wnt Reporter Cell Line); type: cell-based
Description: Reporter Assay: Media from L-Wnt3a cells (L cells overexpressing Wnt3a; ATCC CRL-2647) treated with a concentration-series of RXC004, was incubated with the LEADING LIGHT Wnt Reporter Cell Line (Enzo life sciences; ENZ-61002-0001). Luciferase was detected using the ONE-Glo Luciferase Assay System (Promega E6120), data were normalized to DMSO-treated controls and IC50 values determined. Recombinant Wnt3a (Bio-Techne #1324-WN-010) was used at 1 μg/mL. β-catenin expression: L-Wnt3a cells were treated with RXC004 (100 nmol/L) or DMSO (0.1%) for 24 hours. Cellular β-catenin protein levels were quantified by staining with anti-β-catenin (AlexaFluor488, BD 562505) and assessment using an Agilent Novocyte-3000 flow cytometer.

Microsomal stability = type: in vitro ADME, rat (Sprague Dawley); conditions: Rat, 1 μmol/L
Description: as §1

Plasma protein binding = type: in vitro ADME
Description: Plasma protein binding: Mouse, rat, dog, and human plasmas were obtained from TCS Biosciences Ltd and Sera Laboratories Ltd. A total of 20 μmol/L RXC004 in 10% plasma diluted with phosphate buffer was dialyzed against phosphate buffer for 18 hours at 37°C. The concentration of RXC004 each side of the dialysis plate was determined by LC/MS-MS. Results were corrected to 100% plasma.

[2] = system: HPAF-II cells cocultured with human PBMCs; test: HPAF-II / human PBMC coculture; type: cell-based; conditions: HPAF-II pretreated 100 nmol/L, 3 days
Description: HPAF-II cells were incubated for 3 days with RXC004 (100 nmol/L) or DMSO control, washed and detached using Accutase and equal number of viable cells (as assessed by Trypan Blue exclusion) per treatment were reseeded in 96-well plates. Frozen human peripheral blood mononuclear cells (PBMC), originally collected by density gradient separation using Histopaque from four healthy donors, were thawed and cultured in complete media. After approximately 40 hours, nonadherent PBMCs were added to coculture with the HPAF-II cells, at a PBMC:HPAF-II ratio of 5:1. T-cell proliferation and cytokine production was stimulated using Immunocult CD3/CD28-tetramer (Stemcell Technologies #10971). For monoculture nonadherent PBMC experiments, T cells were stimulated using Immunocult in the presence or absence of recombinant Wnt3a (Biotechne #5036-WN-010) and/or recombinant Wnt5a (Biotechne #645-WN-010), both at 100 ng/mL. After 5 days, supernatants from monoculture or coculture experiments were removed for analysis, whereas suspension cells were fixed, stained with anti-Ki67 (BD #563462), anti-CD4 (BioLegend #317420), and anti-CD8 (BD #564116) antibodies, before flow cytometry was performed on a Novocyte flow cytometer. Cytokines and chemokines in the supernatant were quantified using a 30-plex panel on Magpix (Thermo Fisher Scientific #LHC6003M) or ELISA for IFNγ (R&D Systems # DY285B-05).

[3] = system: cells with upstream aberrations in Wnt pathway components; test: Cell-cycle analysis by flow cytometry; type: cell-based, human; conditions: 100 nmol/L, 3 days
Description: For concentration–response effects on gene expression, Single-Shot Cell Lysis kit (Bio-Rad #172-5080) was used for RNA extraction, data were normalized to DMSO-treated controls, and IC50 values determined. For cell-cycle analysis, the cancer cell line panel was treated with RXC004 (100 nmol/L) or DMSO (0.1%) for 3 days. Cell-cycle profiles were determined by staining with propidium iodide (Thermo Fisher Scientific #P3566) and phospho-Ser10-Histone-H3 (AlexaFluor-647, BioLegend #650806), and quantified using an Agilent Novocyte-3000 flow cytometer. For in vitro growth curve analysis, HPAF-II and SNU-1411 cells were seeded in 96-well plates at 2,000 cells/well and imaged on the IncuCyte (Sartorius) at 10× magnification with 4 fields of view per well. Total cell object count over time was calculated using the Adherent Cell-by-Cell analysis module.

[4] = male, Sprague Dawley, in vivo, po, 5 mg/kg p.o.

Cc1c(-c2ccnc(C(F)(F)F)c2)ncn1CC(=O)Nc1ccc(-c2cnccn2)cn1 [RXC004, 2-[5-methyl-4-[2-(trifluoromethyl)-4-pyridyl]imidazol-1-yl]-N-(5-pyrazin-2-yl-2-pyridyl)acetamide]
Hepatocyte stability: CLint (Hepatocyte stability): 5.3 μL minute^−^1 · 10^6 cells^−^1 | clearance (In vivo pharmacokinetics; male, Sprague Dawley, in vivo, intravenous, 2 mg/kg, dose i.v./p.o. 2/5 mg/kg): 5.8 mL/min/kg | Vd (In vivo pharmacokinetics; male, Sprague Dawley, in vivo, intravenous, 2 mg/kg, dose i.v./p.o. 2/5 mg/kg, read-out: Vss): 0.64 L/kg | AUC(0-inf) (In vivo pharmacokinetics; [4]): 10.5 µM·h | Cmax (In vivo pharmacokinetics; [4]): 3600 nM | concentration at 24 h (In vivo pharmacokinetics; male, Sprague Dawley, in vivo, po, 5 mg/kg p.o., read-out: C24h (p.o.)): 9 nM | half-life (In vivo pharmacokinetics; male, Sprague Dawley, in vivo, dose i.v./p.o. 2/5 mg/kg, read-out: T½ (converted)): 2.5 h | F (p.o.) (In vivo pharmacokinetics; dose i.v./p.o. 2/5 mg/kg): 31% | IC50 ([1]; Mus musculus, L Wnt-3A, L-Wnt3a cells treated with concentration-series, read-out: IC50, β-catenin responsive luciferase reporter activated by conditioned media): 0.064 nM | effect on downstream Wnt signaling (rescue by recombinant Wnt3a) ([1]; recombinant Wnt3a 1 μg/mL): no effect on downstream Wnt signaling | Microsomal stability: CLint (Microsomal stability): 7.8 μL minute^−^1 · mg^−^1 | Plasma protein binding (% free) (Plasma protein binding; Dog): 2.5 % free | Plasma protein binding (% free) (Plasma protein binding; Human): 4.2 % free | Plasma protein binding (% free) (Plasma protein binding; Mouse): 7.5 % free | Plasma protein binding (% free) (Plasma protein binding; Rat): 5.0 % free | HPAF-II inhibition of T-cell proliferation and IFNγ/GMCSF release [2]: fully reversed | release of CXCL9 [2]: potentiated the HPAF-II–dependent release of the chemokine CXCL9 | secretion of VEGF [2]: reducing the HPAF-II–dependent secretion of the angiogenesis promoting growth factor VEGF | expression of mitosis marker phospho-histone-H3 [3]: strongly inhibited expression of the mitosis marker phospho-histone-H3 | proportion of cells in S-phase [3]: reduced the proportion of cells in S-phase

Reference: paper PMC10010340, “The Wnt Pathway Inhibitor RXC004 Blocks Tumor Growth and Reverses Immune Evasion in Wnt Ligand–dependent Cancer Models” (Cancer Research Communications, 2022)
